Data set [1] can be described thus: cells. The conditions noted are these: Mus musculus, BaF3, 72 h.
Data set [2] can be described thus: Inhibition of cell viability of HEK293T cells incubated for 72 hrs by CCK8 assay. In kind it is toxicity, cell-based, HEK-293T. The conditions noted are these: human.
Data set [3] in a line: cells. The conditions noted are these: Mus musculus, BaF3, 72 h. The source holds these as a separate data set.
The target of data set [4] is T1, Platelet-derived growth factor receptor alpha (Homo sapiens, UniProt P16234, D842V). Nature of the data set: Inhibition of PDGFR-alpha D842V mutant (unknown origin) expressed in mouse BaF3 cells. In kind it is cell-based.
The target in data set [5] is T1, Platelet-derived growth factor receptor alpha. Nature of the data set: Inhibition of PDGFR-alpha D842V mutant (unknown origin) using Tyr 04 peptide as substrate incubated for 1 hr in presence of ATP by FRET-based Z'-Lyte assay.
Data set [6] in a line: Induction of apoptosis in mouse BaF3 cells expressing PDGFR-alpha D842V mutant (unknown origin) assessed as early apoptotic cells at 1000 nM incubated for 48 hrs by V-PE/7-AAD staining based flow cytometry (reference value: 4.20 %). The data set is classed as functional.
Data set [7] in a line: Induction of apoptosis in mouse BaF3 cells expressing PDGFR-alpha D842V mutant (unknown origin) assessed as early apoptotic cells at 200 nM incubated for 48 hrs by V-PE/7-AAD staining based flow cytometry (reference value: 4.20 %). In kind it is functional.
Data set [8] in a line: Induction of apoptosis in mouse BaF3 cells expressing PDGFR-alpha D842V mutant (unknown origin) assessed as necrotic cells at 200 nM incubated for 48 hrs by V-PE/7-AAD staining based flow cytometry (reference value: 0.75 %). The data set is classed as functional.
Data set [9] in a line: Induction of cell cycle arrest in mouse BaF3 cells expressing PDGFR-alpha D842V mutant (unknown origin) assessed as accumulation at S phase at 40 nM incubated for 24 hrs by PI staining based flow cytometry (reference value: 12.00 %). In kind it is functional.
Data set [10] can be described thus: Induction of apoptosis in mouse BaF3 cells expressing PDGFR-alpha D842V mutant (unknown origin) assessed as necrotic cells at 1000 nM incubated for 48 hrs by V-PE/7-AAD staining based flow cytometry (reference value: 0.75 %). In kind it is functional.
Data set [11] in a line: Induction of cell cycle arrest in mouse BaF3 cells expressing PDGFR-alpha D842V mutant (unknown origin) assessed as accumulation at G2/M phase at 1000 nM incubated for 24 hrs by PI staining based flow cytometry (reference value: 34.85 %). In kind it is functional.
A short description of data set [12]: Induction of cell cycle arrest in mouse BaF3 cells expressing PDGFR-alpha D842V mutant (unknown origin) assessed as accumulation at G0/G1 phase at 40 nM incubated for 24 hrs by PI staining based flow cytometry (reference value: 51.77 %). The data set is classed as functional.
Data set [13] can be described thus: Induction of apoptosis in mouse BaF3 cells expressing PDGFR-alpha D842V mutant (unknown origin) assessed as necrotic cells at 40 nM incubated for 48 hrs by V-PE/7-AAD staining based flow cytometry (reference value: 0.75 %). In kind it is functional.
Data set [14] in a line: Induction of apoptosis in mouse BaF3 cells expressing PDGFR-alpha D842V mutant (unknown origin) assessed as late apoptotic cells at 1000 nM incubated for 48 hrs by V-PE/7-AAD staining based flow cytometry (reference value: 2.77 %). In kind it is functional.
A short description of data set [15]: Induction of apoptosis in mouse BaF3 cells expressing PDGFR-alpha D842V mutant (unknown origin) assessed as late apoptotic cells at 200 nM incubated for 48 hrs by V-PE/7-AAD staining based flow cytometry (reference value: 2.77 %). The data set is classed as functional.
Data set [16] in a line: Induction of apoptosis in mouse BaF3 cells expressing PDGFR-alpha D842V mutant (unknown origin) assessed as viable cells at 200 nM incubated for 48 hrs by V-PE/7-AAD staining based flow cytometry (reference value: 92.28 %). In kind it is functional. Particulars: read-out: Activity; call rule not given here.
A short description of data set [17]: Induction of apoptosis in mouse BaF3 cells expressing PDGFR-alpha D842V mutant (unknown origin) assessed as late apoptotic cells at 40 nM incubated for 48 hrs by V-PE/7-AAD staining based flow cytometry (reference value: 2.77 %). The data set is classed as functional.
Data set [18] can be described thus: Induction of cell cycle arrest in mouse BaF3 cells expressing PDGFR-alpha D842V mutant (unknown origin) assessed as accumulation at G0/G1 phase at 1000 nM incubated for 24 hrs by PI staining based flow cytometry (reference value: 51.77 %). The data set is classed as functional.
A short description of data set [19]: Induction of cell cycle arrest in mouse BaF3 cells expressing PDGFR-alpha D842V mutant (unknown origin) assessed as accumulation at G0/G1 phase at 200 nM incubated for 24 hrs by PI staining based flow cytometry (reference value: 51.77 %). In kind it is functional.
Data set [20] can be described thus: Induction of cell cycle arrest in mouse BaF3 cells expressing PDGFR-alpha D842V mutant (unknown origin) assessed as accumulation at S phase at 1000 nM incubated for 24 hrs by PI staining based flow cytometry (reference value: 12.00 %). The data set is classed as functional.
Data set [21] is described as follows: Induction of apoptosis in mouse BaF3 cells expressing PDGFR-alpha D842V mutant (unknown origin) assessed as early apoptotic cells at 40 nM incubated for 48 hrs by V-PE/7-AAD staining based flow cytometry (reference value: 4.20 %). The data set is classed as functional.
Data set [22] in a line: Induction of apoptosis in mouse BaF3 cells expressing PDGFR-alpha D842V mutant (unknown origin) assessed as viable cells at 40 nM incubated for 48 hrs by V-PE/7-AAD staining based flow cytometry (reference value: 92.28 %). The data set is classed as functional. The conditions noted are these: read-out: Activity.
Data set [23] in a line: Induction of apoptosis in mouse BaF3 cells expressing PDGFR-alpha D842V mutant (unknown origin) assessed as viable cells at 1000 nM incubated for 48 hrs by V-PE/7-AAD staining based flow cytometry (reference value: 92.28 %). In kind it is functional. Particulars: read-out: Activity.
Data set [24] in a line: Induction of cell cycle arrest in mouse BaF3 cells expressing PDGFR-alpha D842V mutant (unknown origin) assessed as accumulation at S phase at 200 nM incubated for 24 hrs by PI staining based flow cytometry (reference value: 12.00 %). In kind it is functional.
A short description of data set [25]: Induction of cell cycle arrest in mouse BaF3 cells expressing PDGFR-alpha D842V mutant (unknown origin) assessed as accumulation at G2/M phase at 200 nM incubated for 24 hrs by PI staining based flow cytometry (reference value: 34.85 %). In kind it is functional.
The nature of data set [26]: Induction of cell cycle arrest in mouse BaF3 cells expressing PDGFR-alpha D842V mutant (unknown origin) assessed as accumulation at G2/M phase at 40 nM incubated for 24 hrs by PI staining based flow cytometry (reference value: 34.85 %). The data set is classed as functional.
Another data set concerns BaF3. The conditions noted are these: Mus musculus, dose <= 1000.0 nM.

A value given as a limit tells only on which side of the number the result lay.

T1 sequence (P16234 24-1089 D842V limits assumed): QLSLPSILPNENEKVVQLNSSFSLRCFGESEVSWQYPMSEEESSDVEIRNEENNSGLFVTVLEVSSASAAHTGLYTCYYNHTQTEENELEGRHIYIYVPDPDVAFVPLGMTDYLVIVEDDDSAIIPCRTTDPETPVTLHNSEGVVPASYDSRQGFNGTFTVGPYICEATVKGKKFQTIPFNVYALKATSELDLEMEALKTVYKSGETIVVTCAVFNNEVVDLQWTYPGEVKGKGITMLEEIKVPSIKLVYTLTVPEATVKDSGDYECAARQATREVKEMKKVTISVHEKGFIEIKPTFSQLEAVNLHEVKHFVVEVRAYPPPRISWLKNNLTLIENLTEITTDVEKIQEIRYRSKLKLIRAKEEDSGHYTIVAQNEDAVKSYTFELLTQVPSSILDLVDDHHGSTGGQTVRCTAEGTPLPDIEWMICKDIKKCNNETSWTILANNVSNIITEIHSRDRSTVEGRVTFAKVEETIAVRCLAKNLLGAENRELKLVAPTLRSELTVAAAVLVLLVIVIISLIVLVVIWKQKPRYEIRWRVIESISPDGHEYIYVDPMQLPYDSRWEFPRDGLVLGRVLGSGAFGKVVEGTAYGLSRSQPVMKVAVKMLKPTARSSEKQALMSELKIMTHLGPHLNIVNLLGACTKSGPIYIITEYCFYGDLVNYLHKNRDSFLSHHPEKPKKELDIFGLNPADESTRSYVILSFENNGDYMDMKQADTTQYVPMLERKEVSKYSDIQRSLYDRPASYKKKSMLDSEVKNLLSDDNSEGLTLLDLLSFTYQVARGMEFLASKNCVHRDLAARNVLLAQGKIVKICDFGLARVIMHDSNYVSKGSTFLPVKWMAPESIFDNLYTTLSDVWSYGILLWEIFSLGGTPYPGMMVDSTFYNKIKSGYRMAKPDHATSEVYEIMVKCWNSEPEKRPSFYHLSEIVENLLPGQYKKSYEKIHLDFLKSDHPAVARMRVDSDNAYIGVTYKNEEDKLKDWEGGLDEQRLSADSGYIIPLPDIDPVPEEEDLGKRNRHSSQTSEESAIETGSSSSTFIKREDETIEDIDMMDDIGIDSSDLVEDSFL

Regarding `CC1(COc2ccc3c(c2)ncn3-c2ccc3cccc(N4CCC(N)CC4)c3n2)COC1` [CRENOLANIB], the IC50 in “cells [1]” stood at 407 nM; in “cells [3]”, 23.7 nM. Half-maximal inhibition in data set [2] (IC50 at 72 h) required 1680 nM.

For the compound `Clc1cnc2nc1N1CCC(CC1)NCCCOc1ccc3ncn-2c3c1`, the half-maximal inhibitory concentration (IC50) in data set [4] was over 1000 nM; in data set [5] it was over 10000 nM.

Turning to `c1cc2c3nc(ccc3c1)-n1cnc3ccc(cc31)OCCNC1CCN2CC1`, the Activity is 24.41% in data set [6]; 8.22% in [7]; 0.14% in data set [8]; 9.94% in data set [9]; 0.07% in data set [10]; 26.13% in data set [11]. The Activity in data set [12] is listed as 54.31%; in data set [13], 0.06%; in data set [14], 6.67%; in data set [15], 2.27%; in [17], 2.23%; in data set [18] it was 65.32%. In addition, the Activity in data set [19] was found to be 60.03%; in data set [20] it was 7.21%; in data set [21] it was 3.2%; in data set [24] it was 7.5%; in [25] it was 31.42%; in data set [26], 34.25%. Moreover, the results for the IC50 in the data set “cells [1]” and in the data set “cells [3]” were 64.1 nM and 27.6 nM, respectively. Further, the IC50 at 72 h in data set [2] worked out at 1050 nM. Also, the viability at 0.2 µM in data set [16] is 89.4%. The viability at 0.04 µM in data set [22] was 94.5%. For the same compound, the viability at 1 µM in data set [23] stood at 68.8%. Besides, the inhibition result in the data set on BaF3 was “Not active; Less Pronounced As Compared To Avapritinib”.
